Laboratory results: patent publication US20080045584A1, “Use of Docetaxel for Treating Hepatocellular Carcinoma” (priority 1999, published 2008)

How the values were obtained:
Hep 3B cells = assay: Propidium iodide (PI) exclusion assay, flow cytometry; format: cell-based, human
Description: (§1) Cells were grown on 5-cm^2 flasks (CORNING) and treated with paclitaxel and docetaxel as set out above. Propidium iodide (10 μg/ml) was then added for 15 minutes incubation at 37° C. Then, medium was collected prior to harvest of the adherent cells. Both suspended and attached cells were collected and resuspended with 500 μl PBS for flow cytometry analysis as set out below. Debris signals were removed by FSC-SSC gating.
(§2) Cells (10000) were analyzed on a Becton Dickinson FACS Calibur flow cytometer using an argon-ion laser (15 mWatt) with incident beam at 488 nm. For PI exclusion assay, red fluorescence was collected through a 585 nm filter and the cell debris signals were removed by FSC-SSC gating. Data were acquired and analyzed using FACS/CELL Quest software on a Power Macintosh 7600/120 computer. Apoptotic cells and cells at specific cycle phases were determined by ModFit LT software.
(§3) Data are mean±standard error of mean from duplicated sample of at least three independent experiments. Cells were treated with drugs for 24-72 hours, and membrane permeability was measured by flowcytometric analysis of propidium exclusion in viable hepatoma cells. Data are the percentage of cells with intact cell membrane as compared to control

Hep G2 cells = assay: as above; format: cell-based, human
Description: as §1, §2, §3

Hepa 1-6 cells [1] = assay: as above; format: cell-based, murine
Description: as §1, §2, §3

Hepa 1-6 cells [2] = assay: Flow cytometric analysis of DNA content (cell cycle, sub-G0/G1); format: cell-based, murine
Description: Lysing buffer (0.5% Triton X-100, 0.2 μg/ml Na2EDTA.2H2O, and 1% bovine serum albumin in PBS) was added to the cell pellets which were then left on ice for 15 minutes. 100% methanol pre-cooled to −20° C. was then added to the mixture, which was then centrifuged at 300×g for 5 minutes. The supernatant was discarded and the cell pellet was washed with PBS. The washed pellet was stained with a DNA staining solution (50 μg/ml propidium iodide, and 5 kunitz/ml of RNase A) for 30 minutes at 4° C. in the dark. The DNA content of each cell was measured using a Becton Dickinson FACS Calibur flow cytometer as set out below.
as §2
Table 1 gives figures for cell membrane permeability of the hepatoma cells, following treatment with paclitaxel and docetaxel. Table 2 details the percentage of apoptotic (sub-G0/G1) cells found after paclitaxel and docetaxel treatment.

SMILES: CC(=O)O[C@@]12CO[C@@H]1C[C@H](O)[C@@]1(C)C(=O)[C@H](O)C3=C(C)[C@@H](OC(=O)[C@H](O)[C@@H](NC(=O)OC(C)(C)C)c4ccccc4)C[C@@](O)([C@@H](OC(=O)c4ccccc4)[C@H]21)C3(C)C [Docetaxel]
- percentage of cells with intact cell membrane as compared to control (Hep 3B cells; 24 hrs, 0.01 μM): 93.80 ± 10.7%
- percentage of cells with intact cell membrane as compared to control (Hep 3B cells; 24 hrs, 0.1 μM): 57.41 ± 6.8%
- percentage of cells with intact cell membrane as compared to control (Hep 3B cells; 24 hrs, 1 μM): 57.39 ± 4.3%
- percentage of cells with intact cell membrane as compared to control (Hep 3B cells; 72 hrs, 0.01 μM): 36.81 ± 14.7%
- percentage of cells with intact cell membrane as compared to control (Hep 3B cells; 72 hrs, 0.1 μM): 36.25 ± 13.5%
- percentage of cells with intact cell membrane as compared to control (Hep 3B cells; 72 hrs, 1 μM): 20.25 ± 14.4%
- percentage of cells with intact cell membrane as compared to control (Hep G2 cells; Hep G2, 24 hrs, 0.01 μM): 94.86 ± 1.3%
- percentage of cells with intact cell membrane as compared to control (Hep G2 cells; Hep G2, 24 hrs, 0.1 μM): 85.49 ± 1.2%
- percentage of cells with intact cell membrane as compared to control (Hep G2 cells; Hep G2, 24 hrs, 1 μM): 81.24 ± 3.2%
- percentage of cells with intact cell membrane as compared to control (Hep G2 cells; Hep G2, 72 hrs, 0.01 μM): 61.06 ± 9.6%
- percentage of cells with intact cell membrane as compared to control (Hep G2 cells; Hep G2, 72 hrs, 0.1 μM): 40.03 ± 9.0%
- percentage of cells with intact cell membrane as compared to control (Hep G2 cells; Hep G2, 72 hrs, 1 μM): 27.42 ± 8.8%
- percentage of cells with intact cell membrane as compared to control (Hepa 1-6 cells [1]; Hepa 1-6, 24 hrs, 0.01 μM): 94.45 ± 1.9%
- percentage of cells with intact cell membrane as compared to control (Hepa 1-6 cells [1]; Hepa 1-6, 24 hrs, 0.1 μM): 83.35 ± 7.2%
- percentage of cells with intact cell membrane as compared to control (Hepa 1-6 cells [1]; Hepa 1-6, 24 hrs, 1 μM): 81.88 ± 8.7%
- percentage of cells with intact cell membrane as compared to control (Hepa 1-6 cells [1]; Hepa 1-6, 72 hrs, 0.01 μM): 77.18 ± 1.4%
- percentage of cells with intact cell membrane as compared to control (Hepa 1-6 cells [1]; Hepa 1-6, 72 hrs, 0.1 μM): 43.94 ± 3.4%
- percentage of cells with intact cell membrane as compared to control (Hepa 1-6 cells [1]; Hepa 1-6, 72 hrs, 1 μM): 38.90 ± 4.2%
- % of apoptotic (sub-G0/G1) cells (Hepa 1-6 cells [2]; Hepa 1-6, 24 hrs, 0.01 mM (text: μM)): 52.81%
- % of apoptotic (sub-G0/G1) cells (Hepa 1-6 cells [2]; Hepa 1-6, 24 hrs, 0.1 mM (text: μM)): 50.76%
- % of apoptotic (sub-G0/G1) cells (Hepa 1-6 cells [2]; Hepa 1-6, 24 hrs, 1 mM (text: μM)): 53.8%
- % of apoptotic (sub-G0/G1) cells (Hepa 1-6 cells [2]; Hepa 1-6, 72 hrs, 0.01 mM (text: μM)): 31.25%
- % of apoptotic (sub-G0/G1) cells (Hepa 1-6 cells [2]; Hepa 1-6, 72 hrs, 0.1 mM (text: μM)): 53.95%
- % of apoptotic (sub-G0/G1) cells (Hepa 1-6 cells [2]; Hepa 1-6, 72 hrs, 1 mM (text: μM)): 62.49%
